From patent publication US20080234243A1, “METHOD OF TREATING AMYLOIDOSIS MEDIATED DISEASES” (priority 2007, published 2008) come the findings set out here.

The assay has as its system soluble Aβ (1-40) peptide. Briefly: In vivo effect on soluble Aβ (1-40) in whole brain homogenates of CB.17 SCID mice (ELISA). Conditions: CB17 SCID mice, oral, 300 mg/kg/day for 20 days, brain extracts; P=0.012 vs. control. On the procedure:
FIG. 1 provides a graph showing a decrease in soluble AD levels in CB17 SCID mice treated with 2ME2. Mice (5 animals per group) were treated orally for 5 or 20 days with 300 mg/kg/day 2ME2, and soluble Aβ levels were measure in whole brain homogenates. (*P=0.012 vs. control)
CB. 17 SCID mice were treated orally for 5 or 20 days with 300 mg/kg/day 2ME2. At the end of treatment mice were humanely euthanized, and mouse brain was recovered surgically. This tissue was immediately frozen on dry ice until processing for ELISA analysis of soluble Aβ peptide. Serum is also routinely collected for later analysis as well.
Preparation of the Brain Extract Solution
1. Homogenize brains into 15 vol of ice cold TBS, pH 7.4 containing leupeptide (10 ug/ml) and aprotinin (20 ug/ml).
2. Transfer to microcentrifuge tubes and spin 20,000 g for 20 min at 4° C.
3. Remove supernatant (TBS Extract) to ice.
4. Wash once with cold TBS and resuspend in 15 vol of TBS/1% Triton X-100 and protease inhibitors. Incubate 30 min at 4° C. with agitation.
5. Transfer to microcentrifuge tubes and spin 20,000 g for 20 min at 4° C.
6. Remove supernatant (Triton Extract) to ice. […]
Harvested brains were homogenized with a tissue homogenizer, and subjected to serial extraction with TBS followed by TBS/Triton X-100. […] Brains were harvested, and soluble Aβ was assessed. […]

Regarding `COc1cc2c(cc1O)CC[C@@H]1[C@@H]2CC[C@]2(C)[C@@H](O)CC[C@@H]12` [2ME2, 2-methoxyestradiol], the “decrease in the levels of soluble Aβ (inhibition)” value came out at 46%.
